Patent US5110796A, “Prophylactic and therapeutic agents for cataracts” (priority 1988, dated 1992)
Structures can show the parent of a compound that is named as a salt.

Key:
[1] = tested on: X-ray induced cataracts
Protocol: Four-week old SLC Wistar rats are divided into three groups having ten animals in each group; the first group is a normal control group. The second group is an X-ray irradiated control group which is administered intraperitoneally 1 ml/kg of physiological saline solution three times a week after X-ray irradiation. For the third group, 20 mg/kg of glutathione monoisopropyl ester sulfate is administered intraperitoneally three times a week after X-ray irradiation. X-ray irradiation is carried out by irradiating the cephalic portion of conscious rats at 1,000 rad.
After X-ray irradiation, the lens are monitored every two weeks for opacity with a slit lamp. […] When the conditions of lens of the X-ray irradiated control group (the second group) reaches level IV or more (at 28 weeks), the tests are finished. Then the lens are extracted and measured for biochemical parameters [amounts of nonprotein-SH (Ellman's method), amounts of Na^+ /K^+ and Ca^++ (Atomic absorption method)].

[2] = tested on: mice; conditions: intraperitoneal injection to mice

CC(C)OC(=O)CNC(=O)[C@H](CS)NC(=O)CC[C@H](N)C(=O)O [glutathione monoisopropyl ester sulfate, isopropylγ-L-glutamyl-L-cysteinylglycinate]
share of the group with II grade lens score (seven grades I to VII, clear to opacitas) ([1]; 20 mg/kg i.p. three times a week after 1,000 rad X-ray irradiation, 28 weeks, in the X-ray irradiated control the V grade is greater than 50%): greater than 50%
inhibiting action of cataracts ([1]; 20 mg/kg i.p. three times a week after X-ray irradiation, rats): outstanding inhibiting action of cataracts
acute toxicity (LD50) [2]: approximately 5.3 g/kg
